Test in all cases: Large panel kinase profiling
Holding throughout (assay type): biochemical
Common to all, as to settings: 1 μM test article, 1 mM ATP

Test [1] addresses KIT (Homo sapiens, UniProt P10721). The method in brief:
(§1)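 Kinase activity was followed with the PhosphoSens CSox-Sensor platform, testing compound at 1 μM in the presence of 1 mM ATP. Reactions ran at 30° C. and fluorescence (Ex 360 nm/Em 485 nm) was read kinetically every 1 min.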

In test [2] the target is AKT1 (Homo sapiens, UniProt P31749). In a few lines: as §1
Sequence of AKT1 (P31749 whole entry): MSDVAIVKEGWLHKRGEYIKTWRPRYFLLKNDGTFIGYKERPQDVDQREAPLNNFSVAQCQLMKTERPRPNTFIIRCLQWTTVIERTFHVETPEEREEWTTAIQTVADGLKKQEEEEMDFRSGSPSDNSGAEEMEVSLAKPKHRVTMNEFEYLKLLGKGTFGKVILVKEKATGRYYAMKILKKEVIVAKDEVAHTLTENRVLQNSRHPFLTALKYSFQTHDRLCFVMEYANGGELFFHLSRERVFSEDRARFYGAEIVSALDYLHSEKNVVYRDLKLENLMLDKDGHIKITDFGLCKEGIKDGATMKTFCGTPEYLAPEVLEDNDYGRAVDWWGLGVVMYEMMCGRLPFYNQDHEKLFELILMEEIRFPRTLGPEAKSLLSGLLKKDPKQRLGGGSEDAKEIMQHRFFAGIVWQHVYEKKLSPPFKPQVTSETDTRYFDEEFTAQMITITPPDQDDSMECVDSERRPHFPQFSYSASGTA
Test [3] concerns the target T1, CDK5/P35 (Homo sapiens, UniProt Q00535).
T1 construct: AssayQuant Technologies, Inc. (ran the panel)
In a few lines: as §1

Test [4] deals with PRKCD/CPKCD (Homo sapiens, UniProt Q05655). In a few lines: as §1
Sequence of PRKCD/CPKCD (Q05655 whole entry): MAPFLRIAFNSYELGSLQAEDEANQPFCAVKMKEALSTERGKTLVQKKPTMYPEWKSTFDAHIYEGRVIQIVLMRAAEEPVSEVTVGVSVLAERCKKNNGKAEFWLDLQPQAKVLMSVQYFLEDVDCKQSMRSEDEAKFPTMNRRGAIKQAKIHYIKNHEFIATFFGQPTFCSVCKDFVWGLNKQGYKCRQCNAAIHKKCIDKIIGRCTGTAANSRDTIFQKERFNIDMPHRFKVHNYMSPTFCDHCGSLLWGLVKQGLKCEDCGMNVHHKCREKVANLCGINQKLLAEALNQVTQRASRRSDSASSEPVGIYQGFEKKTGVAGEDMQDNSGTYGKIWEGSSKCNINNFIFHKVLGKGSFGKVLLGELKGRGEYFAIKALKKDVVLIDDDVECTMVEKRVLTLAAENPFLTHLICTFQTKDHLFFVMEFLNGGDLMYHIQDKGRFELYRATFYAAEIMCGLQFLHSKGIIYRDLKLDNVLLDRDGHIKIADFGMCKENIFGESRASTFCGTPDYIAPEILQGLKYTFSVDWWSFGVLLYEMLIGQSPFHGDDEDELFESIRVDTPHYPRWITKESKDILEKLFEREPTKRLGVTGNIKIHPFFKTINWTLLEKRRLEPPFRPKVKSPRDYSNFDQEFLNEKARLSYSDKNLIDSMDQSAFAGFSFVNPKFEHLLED
Test [5] concerns the target T2, MAP3K13 (Homo sapiens, UniProt O43283).
T2 sequence (O43283 1-966): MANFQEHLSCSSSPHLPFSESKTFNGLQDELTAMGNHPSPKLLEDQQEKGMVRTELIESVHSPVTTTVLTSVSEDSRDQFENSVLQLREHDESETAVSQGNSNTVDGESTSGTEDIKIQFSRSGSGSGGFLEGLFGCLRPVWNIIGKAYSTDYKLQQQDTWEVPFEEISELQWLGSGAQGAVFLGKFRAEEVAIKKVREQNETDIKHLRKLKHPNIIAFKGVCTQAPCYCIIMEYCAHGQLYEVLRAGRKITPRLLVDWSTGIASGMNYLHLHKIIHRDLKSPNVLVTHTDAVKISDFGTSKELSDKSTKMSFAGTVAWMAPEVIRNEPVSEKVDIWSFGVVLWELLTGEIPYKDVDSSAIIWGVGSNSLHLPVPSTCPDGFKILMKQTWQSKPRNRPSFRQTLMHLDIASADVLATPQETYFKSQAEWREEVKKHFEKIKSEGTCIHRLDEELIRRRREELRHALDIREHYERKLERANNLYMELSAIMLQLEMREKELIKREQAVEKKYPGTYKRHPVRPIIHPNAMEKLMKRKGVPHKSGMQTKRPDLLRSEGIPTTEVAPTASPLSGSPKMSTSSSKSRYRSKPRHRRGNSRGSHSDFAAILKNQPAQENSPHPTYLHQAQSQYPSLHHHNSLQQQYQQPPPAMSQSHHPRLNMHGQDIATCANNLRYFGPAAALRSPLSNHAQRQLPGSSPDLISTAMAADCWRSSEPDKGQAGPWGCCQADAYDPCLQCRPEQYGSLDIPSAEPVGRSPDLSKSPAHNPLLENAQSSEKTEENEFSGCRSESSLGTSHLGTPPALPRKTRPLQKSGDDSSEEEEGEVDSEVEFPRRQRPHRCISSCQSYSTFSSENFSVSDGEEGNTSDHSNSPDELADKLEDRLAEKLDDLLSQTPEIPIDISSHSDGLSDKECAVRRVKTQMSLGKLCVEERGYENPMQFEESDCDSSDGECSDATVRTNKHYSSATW
The method in brief:
as §1

Test [6] deals with T3, BRSK2 (Homo sapiens, UniProt Q8IWQ3).
T3 sequence (Q8IWQ3 1-736): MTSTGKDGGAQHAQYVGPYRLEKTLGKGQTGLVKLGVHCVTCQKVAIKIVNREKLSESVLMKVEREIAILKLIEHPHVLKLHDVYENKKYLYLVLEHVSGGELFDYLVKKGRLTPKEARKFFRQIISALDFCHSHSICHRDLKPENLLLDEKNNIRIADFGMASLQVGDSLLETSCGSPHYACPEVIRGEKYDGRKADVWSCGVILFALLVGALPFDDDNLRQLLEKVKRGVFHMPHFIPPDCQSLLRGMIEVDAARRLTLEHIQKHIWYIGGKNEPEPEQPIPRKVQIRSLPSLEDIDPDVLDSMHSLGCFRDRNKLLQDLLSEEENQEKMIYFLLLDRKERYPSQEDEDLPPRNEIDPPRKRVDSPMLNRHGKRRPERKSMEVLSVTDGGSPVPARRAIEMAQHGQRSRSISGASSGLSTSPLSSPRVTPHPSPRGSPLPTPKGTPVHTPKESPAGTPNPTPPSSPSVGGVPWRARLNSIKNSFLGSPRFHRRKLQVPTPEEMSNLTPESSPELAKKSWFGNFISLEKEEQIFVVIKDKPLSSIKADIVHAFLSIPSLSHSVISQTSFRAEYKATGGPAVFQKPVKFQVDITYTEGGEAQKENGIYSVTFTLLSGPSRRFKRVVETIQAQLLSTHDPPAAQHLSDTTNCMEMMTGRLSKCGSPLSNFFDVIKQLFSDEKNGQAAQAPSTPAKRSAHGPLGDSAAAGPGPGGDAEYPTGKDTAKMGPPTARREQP
In a few lines:
as §1

Test [7] has as its target T4, GRK5 (Homo sapiens, UniProt P34947).
T4 construct: AssayQuant Technologies, Inc. (service provider)
In a few lines:
as §1

What is called inhibition is the relative decrease from the control value, in per cent.

T1 sequence (Q00535 whole entry, species assumed): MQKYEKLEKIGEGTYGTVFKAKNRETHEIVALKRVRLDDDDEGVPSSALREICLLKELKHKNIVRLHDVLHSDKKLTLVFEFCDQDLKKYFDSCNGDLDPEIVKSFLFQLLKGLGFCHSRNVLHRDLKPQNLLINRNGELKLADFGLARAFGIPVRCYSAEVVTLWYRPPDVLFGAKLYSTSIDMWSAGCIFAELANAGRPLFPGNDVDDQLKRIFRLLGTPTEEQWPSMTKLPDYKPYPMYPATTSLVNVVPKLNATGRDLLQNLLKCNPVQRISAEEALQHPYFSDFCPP
T1 sequence (Q15078 2-307 partner limits assumed, species assumed): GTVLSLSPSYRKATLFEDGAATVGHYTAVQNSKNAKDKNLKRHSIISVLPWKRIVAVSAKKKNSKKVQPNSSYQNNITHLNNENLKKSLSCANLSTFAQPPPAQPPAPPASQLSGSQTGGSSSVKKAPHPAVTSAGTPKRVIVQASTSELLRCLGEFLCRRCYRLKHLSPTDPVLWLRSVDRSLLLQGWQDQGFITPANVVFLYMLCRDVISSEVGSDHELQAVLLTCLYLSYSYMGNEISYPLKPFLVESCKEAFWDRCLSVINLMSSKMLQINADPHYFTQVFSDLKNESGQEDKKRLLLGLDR
Sequence of KIT (P10721 26-976, species assumed): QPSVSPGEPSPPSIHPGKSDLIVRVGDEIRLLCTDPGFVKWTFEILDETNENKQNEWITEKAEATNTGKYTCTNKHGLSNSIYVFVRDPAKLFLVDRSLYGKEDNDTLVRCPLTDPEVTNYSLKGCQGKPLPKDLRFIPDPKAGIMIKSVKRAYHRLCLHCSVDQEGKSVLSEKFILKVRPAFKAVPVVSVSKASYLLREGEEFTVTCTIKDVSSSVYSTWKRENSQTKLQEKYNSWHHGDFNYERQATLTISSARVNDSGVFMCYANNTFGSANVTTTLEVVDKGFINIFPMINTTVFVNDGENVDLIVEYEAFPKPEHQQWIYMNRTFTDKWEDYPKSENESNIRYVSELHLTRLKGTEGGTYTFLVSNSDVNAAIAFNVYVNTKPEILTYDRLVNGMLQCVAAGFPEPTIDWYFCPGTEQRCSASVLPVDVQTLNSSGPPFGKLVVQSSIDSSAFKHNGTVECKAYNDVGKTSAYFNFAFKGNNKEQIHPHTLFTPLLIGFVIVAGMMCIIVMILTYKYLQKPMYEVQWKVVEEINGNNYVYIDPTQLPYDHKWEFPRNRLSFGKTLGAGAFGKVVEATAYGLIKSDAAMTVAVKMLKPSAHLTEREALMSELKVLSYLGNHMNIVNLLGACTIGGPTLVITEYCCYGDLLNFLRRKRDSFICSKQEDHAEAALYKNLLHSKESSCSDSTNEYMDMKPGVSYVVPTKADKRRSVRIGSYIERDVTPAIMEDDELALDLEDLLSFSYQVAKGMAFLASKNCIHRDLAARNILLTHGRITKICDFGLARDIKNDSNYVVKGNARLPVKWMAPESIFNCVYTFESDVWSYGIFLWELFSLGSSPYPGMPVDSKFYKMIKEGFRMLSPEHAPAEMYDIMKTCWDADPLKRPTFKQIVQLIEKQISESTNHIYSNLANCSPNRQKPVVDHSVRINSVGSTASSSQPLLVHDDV
T4 sequence (P34947 whole entry, species assumed): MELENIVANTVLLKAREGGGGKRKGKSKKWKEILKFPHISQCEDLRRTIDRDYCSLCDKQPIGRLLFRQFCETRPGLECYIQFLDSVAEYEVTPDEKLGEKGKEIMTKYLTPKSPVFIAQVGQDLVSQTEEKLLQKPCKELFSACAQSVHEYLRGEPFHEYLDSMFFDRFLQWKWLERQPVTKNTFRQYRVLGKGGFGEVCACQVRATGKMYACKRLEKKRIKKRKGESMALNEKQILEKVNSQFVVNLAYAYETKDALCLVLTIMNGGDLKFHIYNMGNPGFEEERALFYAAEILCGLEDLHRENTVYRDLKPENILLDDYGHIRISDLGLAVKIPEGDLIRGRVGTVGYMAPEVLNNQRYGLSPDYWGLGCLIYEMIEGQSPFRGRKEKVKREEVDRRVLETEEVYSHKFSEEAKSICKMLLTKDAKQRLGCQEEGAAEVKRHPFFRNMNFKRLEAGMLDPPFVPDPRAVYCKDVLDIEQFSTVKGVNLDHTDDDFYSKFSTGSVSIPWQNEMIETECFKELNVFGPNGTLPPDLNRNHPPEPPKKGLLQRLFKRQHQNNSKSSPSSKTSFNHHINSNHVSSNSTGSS

`C=CC(=O)N1CCCC(c2c(F)cc(C(N)=O)c3[nH]c4c(c23)CCCCC4)C1` (single isomer, unassigned) [Compound 5-6]: the inhibition at 1 µM was 5.5% in test [1]; 20% in test [2]; -13.2% in test [3]; -42.2% in test [4]; 3.6% in test [5]; -31.2% in test [6]. Also, the inhibition at 1 µM in test [7] was -8.8%.

For `C=CC(=O)N1CCC[C@@H](c2c(F)cc(C(N)=O)c3[nH]c4c(c23)CC2(CC4)CC2)C1` [Compound 6-2, (S)-5-(1-acryloylpiperidin-3-yl)-6-fluoro-1,2,4,9-tetrahydrospiro[carbazole-3,1′-cyclopropane]-8-carboxamide], the inhibition at 1 µM in test [1] was 26.9%; in test [2] it was -17%; in test [3] it was -37.5%; in test [4] it was -0.1%; in test [5] it was 16.1%; in test [6], -5.7%. Moreover, the inhibition at 1 µM in test [7] was -114%.

Regarding `C=CC(=O)N1CCC[C@@H](c2c(F)cc(C(N)=O)c3[nH]c4c(c23)CCC4)C1` [Compound 10-2, (S)-8-(1-acryloylpiperidin-3-yl)-7-fluoro-1,2,3,4-tetrahydrocyclo-penta[b]indole-5-carboxamide], the inhibition at 1 µM in test [1] was 20.8%; in test [2], -14.8%; in test [3], 2.9%; in test [4] it was -0.6%; in test [5], 3.2%; in test [6], 1.8%. The inhibition at 1 µM in test [7] is -2.2%.

Source of the values: patent publication US20220009920A1 (GB005, Inc., priority 2020, published 2022).
